Converted amounts (≈) assume the structure as drawn.
Experiments:
RalB-GDP [1] = biological target: T1, RalB-GDP (Homo sapiens, UniProt P11234, Q72L); assay: Isothermal Titration Calorimetry (ITC); type: binding; details: 25° C.; 50 mM sodium phosphate pH 7.6; 1% DMSO
T1 construct: made in house
T1 sequence (P11234 1-206 Q72L): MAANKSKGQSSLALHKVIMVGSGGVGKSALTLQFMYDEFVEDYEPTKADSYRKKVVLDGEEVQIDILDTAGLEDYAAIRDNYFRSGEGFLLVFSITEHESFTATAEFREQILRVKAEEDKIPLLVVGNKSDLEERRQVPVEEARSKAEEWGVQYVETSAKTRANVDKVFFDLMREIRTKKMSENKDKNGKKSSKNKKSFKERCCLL
Procedure: (§1) Consequently, the binding of BQU57 to RalB-GDP was then determined using Isothermal Titration Calorimetry (ITC). ITC experiments were carried out using the MicroCal iTC200 system. Both protein and drug were prepared in 50 mM sodium phosphate, pH 7.6, 100 mM NaCl, and 1 mM MgCl2. Final DMSO concentration was adjusted to 1%. RalB-GDP protein (500 μM) were loaded into the syringe and titrated into drug (25 μM) or buffer alone as control. All experiments were carried out at 25° C. […] SPR experiments were carried out using the Biacore 3000 system. Running buffer: PBS, pH 7.4, 1 μM GDP, 2 mM MgCl2, 3% DMSO. Regeneration buffer: PBS, pH 7.4, 1 μM GDP, 2 mM Mg Cl2. RalB protein was immobilized on CM5 chip; samples of compound BQU57 in running buffer were injected at 30 μL/min for 60 s contact time followed by 5 minute regeneration.

Ras = Ras activity pull-down in H2122 xenograft tumors; type: in vivo, human; details: BQU57 treated H2122 tumors, 3 h post-dose
From the text: Activity assay kits for Ras (#BK008) and RhoA (#BK036) were obtained from Cytoskeleton (Denver, Colo.). We used an ELISA for Ral activity based on selective binding of active RalA-GTP to its effector protein RalBP1.
Finally, we evaluated Ral GTPase activity in vivo in the H2122 xenografts. Nude mice were inoculated with 5×10^6 cells H2122 cells s.c. at four sites per mice. Tumor size reached an average of 250 mm^3 in ten days, at which time mice were given a signal i.p. dose of RBC8 or BQU57 at various concentrations. Tumors were then collected 3 h after injection of RBC8 or BQU57. RalA and RalB activity in tumor samples were then measured using the RalBP1 pull-down assay kit (Millipore #14-415). Ras and RhoA activity in tumor samples were measured using the respective pull-down assay kits. All the activity assays used western blotting as the final readout. For quantification of the immunoblots, the bands on each blot were first normalized to their respective internal control (10 ng of recombinant Ral, Ras, or […] protein run in the last lane) the numbers were then compared across different blots, each of which represented one treatment condition. Mice bearing H2122 tumors (median size 250 mm^3) were given a single intraperitoneal dose of RBC8 (50 mg/kg) or BQU57 (10/20/50 mg/kg) and tumors collected 3 h post-dose.

RalB-GDP [2] = biological target: T1, RalB-GDP; assay: Differential scanning fluorometry (DSF); type: binding; details: 10 μM RalB-GDP, 1% DMSO
Procedure: Differential scanning fluorometry (DSF) was used to evaluate binding between compounds and RalB-GDP. The melting temperature was measured by monitoring the increase of SYPRO orange that binds to hydrophobic regions of the protein. DSF was performed by preparing a plate containing 10 μM RalB-GDP and 10 μM RalB-GPNPP, 4×SYPRO orange in 20 mM Tris PH 8.0, 200 mM NaCl, 2.5 mM MgCl2 and 1 mM DTT buffer. Test compound was added to each well ensuring that the final concentration of DMSO was 1% across all samples. The thermal melting curves were obtained on a Light cycler 480 (Roche). The melting temperature was obtained by normalizing the curves and obtaining the temperature at the midpoint of the transition curve.

RalB-GDP [3] = biological target: T1, RalB-GDP; assay: Surface Plasma Resonance (SPR) binding, Biacore 3000; details: RalB immobilized on CM5 chip; PBS pH 7.4, 1 μM GDP, 2 mM MgCl2, 3% DMSO
Procedure: as §1

physchem = type: physicochemical; details: aqueous buffer

## Cc1nn(C)c2c1C(c1ccc(C(F)(F)F)cc1)C(C#N)=C(N)O2 (centres unmarked) [BQU57, 6-amino-1,3-dimethyl-4-(4-(trifluoromethyl)phenyl)-1,4-dihydropyrano[2,3-c]pyrazole-5-carbonitrile]
RalB-GDP [1]
  Kd: 7.7 ± 0.6 µM
Ras
  inhibition of Ras activity in tumors: no significant inhibition
RalB-GDP [2]
  binding to RalB-GDP by DSF (melting temperature): dose-dependent binding
RalB-GDP [3]
  Kd: 4.7 ± 1.5 µM
physchem
  solubility: ~75 µM (≈ 25.1 µg/mL)

Reference: patent US11472812B2, “Anti-cancer compounds targeting Ral GTPases and methods of using the same” (The Regents of the University of Colorado, a body corporate, priority 2014, dated 2022)
